Experimental data from patent US12252524B2, “GIP/GLP1 co-agonist compounds” (Eli Lilly and Company, priority 2018, dated 2025).
Numbered stars: 1 amine (or outer) side, 2 acyl side, 3 side chain; on linkers, the order of the positions; unused ones are H or OH. Square brackets hold non-standard residues; d marks the D form. Side chains are listed from the residue outwards. Peptide text beside a SMILES is read from it. * marks the point of attachment. Ala(1H-tetrazol-5-yl) = N[C@@H](Cc1nnn[nH]1)C(=O)O; C20 diacid = O=C(O)CCCCCCCCCCCCCCCCCCC(=O)*; γGlu = O=C(O)[C@H](CCC(=O)[*:2])N[*:1]; αMeF = C[C@](N)(Cc1ccccc1)C(=O)O; αMeL = CC(C)C[C@](C)(N)C(=O)O; AEEA = NCCOCCOCC(=O)O; Aib = CC(C)(N)C(=O)O

Legend:
[1] = biological target: human GLP-1 receptor (GLP-1R) (Homo sapiens, UniProt P43220); assay: cAMP pharmacological functional assay in presence of casein, hGLP-1R; type: cell-based; conditions: HEK293 cells expressing hGLP-1R, 0.1% Casein, geometric mean; read-out: hGLP1R cAMP Rel EC50 nM (SEM, n)
[2] = biological target: human GLP-1R (Homo sapiens, UniProt P43220); assay: [125I]-GLP-1 binding (SPA), human GLP-1 receptor; design: expressed in transfected cells; crude membranes; conditions: read-out: hGLP1R Ki, (nM) (SEM, n)
Summary of the method: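 Frozen cell pellets are lysed on ice in hypotonic Tris buffer, pH 7.5, homogenized, and centrifuged to a membrane pellet resuspended at about 1 to 3 mg/mL. Binding is then measured in HEPES-based buffer at pH 7.4, and curves are fitted to give IC50 and Ki.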

[3] = biological target: T1, gastric inhibitory peptide receptor (GIPR) (Homo sapiens, UniProt P48546); assay: cAMP pharmacological functional assay in presence of casein, hGIPR; type: cell-based; conditions: HEK293 cells expressing hGIPR, 0.1% Casein, geometric mean; read-out: hGIPR cAMP Rel EC50 nM (SEM, n)
T1 sequence (P48546 22-466): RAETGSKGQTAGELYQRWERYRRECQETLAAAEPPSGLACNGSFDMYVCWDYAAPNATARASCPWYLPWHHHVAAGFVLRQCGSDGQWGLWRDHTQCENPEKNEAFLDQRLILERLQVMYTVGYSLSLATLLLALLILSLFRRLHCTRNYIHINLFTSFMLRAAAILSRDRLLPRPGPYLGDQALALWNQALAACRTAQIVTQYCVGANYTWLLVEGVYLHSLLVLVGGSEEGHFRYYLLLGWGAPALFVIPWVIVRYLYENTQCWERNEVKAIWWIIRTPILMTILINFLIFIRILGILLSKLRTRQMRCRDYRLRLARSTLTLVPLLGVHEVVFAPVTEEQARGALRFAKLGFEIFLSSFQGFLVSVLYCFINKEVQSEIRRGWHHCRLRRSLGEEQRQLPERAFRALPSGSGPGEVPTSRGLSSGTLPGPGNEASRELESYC

[4] = biological target: T2, human GIP receptor (Homo sapiens, UniProt P48546); assay: [125I]-GIP binding (SPA), human GIP receptor; conditions: read-out: hGIPR Ki, nM (SEM, n)
T2 construct: expressed in transfected cells; crude membranes
T2 sequence (P48546 22-466): T1 sequence (P48546 22-466)

[5] = biological target: T3, human Gcg receptor (Homo sapiens, UniProt P47871); assay: [125I]-Glucagon binding (SPA), human Gcg receptor; conditions: read-out: hGLcgR Ki, nM (SEM, n)
T3 construct: expressed in transfected cells; crude membranes
Summary of the method: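 Scintillation counts are taken after membranes and WGA beads incubate and settle for 12 hours at room temperature. Buffer is 25 mM HEPES, pH 7.4, with CaCl2, MgCl2, bacitracin and Tween-20. Ki values, from four-parameter IC50 fits, are geometric means over independent days.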

T3 sequence (P47871 26-477): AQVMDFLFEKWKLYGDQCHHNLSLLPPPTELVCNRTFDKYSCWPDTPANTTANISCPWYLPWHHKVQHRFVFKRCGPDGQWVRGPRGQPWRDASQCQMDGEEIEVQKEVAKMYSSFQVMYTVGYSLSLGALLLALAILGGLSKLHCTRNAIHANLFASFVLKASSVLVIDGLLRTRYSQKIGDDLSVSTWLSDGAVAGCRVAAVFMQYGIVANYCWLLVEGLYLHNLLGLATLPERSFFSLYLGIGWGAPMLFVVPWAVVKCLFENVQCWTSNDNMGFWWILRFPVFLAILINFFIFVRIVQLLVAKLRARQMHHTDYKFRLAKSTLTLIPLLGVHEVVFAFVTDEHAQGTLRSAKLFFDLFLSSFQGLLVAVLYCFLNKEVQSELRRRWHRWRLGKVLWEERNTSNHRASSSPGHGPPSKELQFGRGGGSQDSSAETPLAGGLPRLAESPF
human GLP-1R, sequence (P43220 24-463): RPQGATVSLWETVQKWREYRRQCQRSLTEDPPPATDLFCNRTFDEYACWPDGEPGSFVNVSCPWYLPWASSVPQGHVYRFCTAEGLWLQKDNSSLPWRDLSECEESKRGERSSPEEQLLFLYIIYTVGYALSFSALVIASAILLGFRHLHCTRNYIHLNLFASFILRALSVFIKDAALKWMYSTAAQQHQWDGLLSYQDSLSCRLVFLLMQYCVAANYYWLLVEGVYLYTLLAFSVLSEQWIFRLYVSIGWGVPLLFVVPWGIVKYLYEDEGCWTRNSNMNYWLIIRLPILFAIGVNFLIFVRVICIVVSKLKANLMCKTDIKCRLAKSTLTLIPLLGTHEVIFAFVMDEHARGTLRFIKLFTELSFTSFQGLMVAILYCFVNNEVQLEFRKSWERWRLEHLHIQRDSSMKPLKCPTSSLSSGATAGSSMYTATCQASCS
human GLP-1 receptor (GLP-1R), sequence (P43220 24-463): as above

SMILES	EC50 [1]	Ki [2]	EC50 [3]	Ki [4]	Ki [5]
CC[C@H](C)[C@H](NC(=O)[C@H](CC(C)C)NC(=O)[C@H](Cc1ccc(O)cc1)NC(=O)[C@H](CCC(=O)O)NC(=O)[C@@H](NC(=O)[C@H](Cc1ccccc1)NC(=O)[C@H](C)NC(=O)C(C)(C)NC(=O)[C@H](CCC(N)=O)NC(=O)[C@H](C)NC(=O)[C@H](CCCCNC(=O)COCCOCCNC(=O)COCCOCCNC(=O)CC[C@H](NC(=O)CCCCCCCCCCCCCCCCCCC(=O)O)C(=O)O)NC(=O)[C@H](CCC(=O)O)NC(=O)[C@H](CC(=O)O)NC(=O)[C@H](CC(C)C)NC(=O)[C@](C)(CC(C)C)NC(=O)[C@@H](NC(=O)[C@H](CO)NC(=O)[C@H](Cc1ccc(O)cc1)NC(=O)[C@H](CC(=O)O)NC(=O)[C@H](CO)NC(=O)[C@@H](NC(=O)[C@](C)(Cc1ccccc1)NC(=O)[C@@H](NC(=O)CNC(=O)[C@H](CCC(=O)O)NC(=O)C(C)(C)NC(=O)[C@@H](N)Cc1ccccc1)[C@@H](C)O)[C@@H](C)O)[C@@H](C)CC)[C@@H](C)CC)C(=O)N[C@@H](CCC(=O)O)C(=O)NCC(=O)NCC(=O)N1CCC[C@H]1C(=O)N[C@@H](CO)C(=O)N[C@@H](CO)C(=O)NCC(=O)N[C@@H](C)C(=O)N1CCC[C@H]1C(=O)N1CCC[C@H]1C(=O)N1CCC[C@H]1C(=O)N[C@@H](CO)C(N)=O [Example 119] (H-F[Aib]EGT[αMeF]TSDYSI[αMeL]LDEK([AEEA-AEEA-γGlu-C20 diacid])AQ[Aib]AFIEYLIEGGPSSGAPPPS-NH2)	0.0913 nM	9.87 nM	0.216 nM	0.0925 nM	30.6 nM
CC[C@H](C)[C@H](NC(=O)[C@H](CC(C)C)NC(=O)[C@H](Cc1ccc(O)cc1)NC(=O)[C@H](CCC(=O)O)NC(=O)[C@@H](NC(=O)[C@H](Cc1ccccc1)NC(=O)[C@H](C)NC(=O)C(C)(C)NC(=O)[C@H](CCC(N)=O)NC(=O)[C@H](C)NC(=O)[C@H](CCCCNC(=O)COCCOCCNC(=O)COCCOCCNC(=O)CC[C@H](NC(=O)CCCCCCCCCCCCCCCCCCC(=O)O)C(=O)O)NC(=O)[C@H](CCC(=O)O)NC(=O)[C@H](CC(=O)O)NC(=O)[C@H](CC(C)C)NC(=O)[C@](C)(CC(C)C)NC(=O)[C@@H](NC(=O)[C@H](CO)NC(=O)[C@H](Cc1ccc(O)cc1)NC(=O)[C@H](CC(=O)O)NC(=O)[C@H](CO)NC(=O)[C@@H](NC(=O)[C@](C)(Cc1ccccc1)NC(=O)[C@@H](NC(=O)CNC(=O)[C@H](Cc1nn[nH]n1)NC(=O)C(C)(C)NC(=O)[C@@H](N)Cc1ccc(O)cc1)[C@@H](C)O)[C@@H](C)O)[C@@H](C)CC)[C@@H](C)CC)C(=O)N[C@@H](CCC(=O)O)C(=O)NCC(=O)NCC(=O)N1CCC[C@H]1C(=O)N[C@@H](CO)C(=O)N[C@@H](CO)C(=O)NCC(=O)N[C@@H](C)C(=O)N1CCC[C@H]1C(=O)N1CCC[C@H]1C(=O)N1CCC[C@H]1C(=O)N[C@@H](CO)C(N)=O [Example 120] (H-Y[Aib][Ala(1H-tetrazol-5-yl)]GT[αMeF]TSDYSI[αMeL]LDEK([AEEA-AEEA-γGlu-C20 diacid])AQ[Aib]AFIEYLIEGGPSSGAPPPS-NH2; N-terminus assumed)	0.201 nM	11.7 nM	0.122 nM	0.11 nM	93.6 nM
CC[C@H](C)[C@H](NC(=O)[C@H](CC(C)C)NC(=O)[C@H](Cc1ccc(O)cc1)NC(=O)[C@H](CCC(=O)O)NC(=O)[C@@H](NC(=O)[C@H](Cc1ccccc1)NC(=O)[C@H](C)NC(=O)[C@H](CCC(N)=O)NC(=O)[C@H](CCC(N)=O)NC(=O)[C@H](C)NC(=O)[C@H](CCCCNC(=O)COCCOCCNC(=O)COCCOCCNC(=O)CC[C@H](NC(=O)CCCCCCCCCCCCCCCCCCC(=O)O)C(=O)O)NC(=O)[C@H](CCC(=O)O)NC(=O)[C@H](CC(=O)O)NC(=O)[C@H](CC(C)C)NC(=O)[C@](C)(CC(C)C)NC(=O)[C@@H](NC(=O)[C@H](CO)NC(=O)[C@H](Cc1ccc(O)cc1)NC(=O)[C@H](CC(=O)O)NC(=O)[C@H](CO)NC(=O)[C@@H](NC(=O)[C@](C)(Cc1ccccc1)NC(=O)[C@@H](NC(=O)CNC(=O)[C@H](CCC(=O)O)NC(=O)C(C)(C)NC(=O)[C@@H](N)Cc1ccc(O)cc1)[C@@H](C)O)[C@@H](C)O)[C@@H](C)CC)[C@@H](C)CC)C(=O)N[C@@H](CCC(=O)O)C(=O)NCC(=O)NCC(=O)N1CCC[C@H]1C(=O)N[C@@H](CO)C(=O)N[C@@H](CO)C(=O)NCC(=O)N[C@@H](C)C(=O)N1CCC[C@H]1C(=O)N1CCC[C@H]1C(=O)N1CCC[C@H]1C(=O)N[C@@H](CO)C(N)=O [Example 121] (H-Y[Aib]EGT[αMeF]TSDYSI[αMeL]LDEK([AEEA-AEEA-γGlu-C20 diacid])AQQAFIEYLIEGGPSSGAPPPS-NH2)	0.0849 nM	3.16 nM	0.076 nM	0.177 nM	51.9 nM
CC[C@H](C)[C@H](NC(=O)[C@H](Cc1ccccc1)NC(=O)[C@H](C)NC(=O)[C@H](CCC(N)=O)NC(=O)[C@H](CCC(N)=O)NC(=O)[C@H](C)NC(=O)[C@H](CCCCNC(=O)COCCOCCNC(=O)COCCOCCNC(=O)CC[C@H](NC(=O)CCCCCCCCCCCCCCCCCCC(=O)O)C(=O)O)NC(=O)[C@H](CCC(=O)O)NC(=O)[C@H](CC(=O)O)NC(=O)[C@H](CC(C)C)NC(=O)[C@](C)(CC(C)C)NC(=O)[C@@H](NC(=O)[C@H](CO)NC(=O)[C@H](Cc1ccc(O)cc1)NC(=O)[C@H](CC(=O)O)NC(=O)[C@H](CO)NC(=O)[C@@H](NC(=O)[C@](C)(Cc1ccccc1)NC(=O)[C@@H](NC(=O)CNC(=O)[C@H](CCC(=O)O)NC(=O)C(C)(C)NC(=O)[C@@H](N)Cc1ccc(O)cc1)[C@@H](C)O)[C@@H](C)O)[C@@H](C)CC)C(=O)N[C@@H](CCC(=O)O)C(=O)N[C@@H](Cc1ccc(O)cc1)C(=O)N[C@@H](CC(C)C)C(=O)N[C@H](C(=O)N[C@@H](CCC(=O)O)C(=O)NC(C)(C)C(=O)NCC(=O)N1CCC[C@H]1C(=O)N[C@@H](CO)C(=O)N[C@@H](CO)C(=O)NCC(=O)N[C@@H](C)C(=O)N1CCC[C@H]1C(=O)N1CCC[C@H]1C(=O)N1CCC[C@H]1C(=O)N[C@@H](CO)C(N)=O)[C@@H](C)CC [Example 122] (H-Y[Aib]EGT[αMeF]TSDYSI[αMeL]LDEK([AEEA-AEEA-γGlu-C20 diacid])AQQAFIEYLIE[Aib]GPSSGAPPPS-NH2)	0.076 nM	3.36 nM	0.0923 nM	0.19 nM	43.3 nM
CC[C@H](C)[C@H](NC(=O)[C@H](CC(C)C)NC(=O)[C@H](Cc1ccc(O)cc1)NC(=O)[C@H](CCC(=O)O)NC(=O)[C@@H](NC(=O)[C@H](Cc1ccccc1)NC(=O)[C@H](CCC(=O)O)NC(=O)C(C)(C)NC(=O)[C@H](CCC(N)=O)NC(=O)[C@H](C)NC(=O)[C@H](CCCCNC(=O)COCCOCCNC(=O)COCCOCCNC(=O)CC[C@H](NC(=O)CCCCCCCCCCCCCCCCCCC(=O)O)C(=O)O)NC(=O)[C@H](CCC(=O)O)NC(=O)[C@H](CC(=O)O)NC(=O)[C@H](CC(C)C)NC(=O)[C@](C)(CC(C)C)NC(=O)[C@@H](NC(=O)[C@H](CO)NC(=O)[C@H](Cc1ccc(O)cc1)NC(=O)[C@H](CC(=O)O)NC(=O)[C@H](CO)NC(=O)[C@@H](NC(=O)[C@](C)(Cc1ccccc1)NC(=O)[C@@H](NC(=O)CNC(=O)[C@H](CCC(=O)O)NC(=O)C(C)(C)NC(=O)[C@@H](N)Cc1ccc(O)cc1)[C@@H](C)O)[C@@H](C)O)[C@@H](C)CC)[C@@H](C)CC)C(=O)N[C@@H](CCC(=O)O)C(=O)NCC(=O)NCC(=O)N1CCC[C@H]1C(=O)N[C@@H](CO)C(=O)N[C@@H](CO)C(=O)NCC(N)=O [Example 124] (H-Y[Aib]EGT[αMeF]TSDYSI[αMeL]LDEK([AEEA-AEEA-γGlu-C20 diacid])AQ[Aib]EFIEYLIEGGPSSG-NH2)	0.0475 nM	4.87 nM	0.0762 nM	0.0424 nM	41.5 nM
